Key:
AXL = target: T1, AXL (Homo sapiens, UniProt P30530); assay: TR-FRET kinase activity assay, AXL; type: biochemical; conditions: ATP at Km, 60 minutes
T1 sequence (P30530 26-894): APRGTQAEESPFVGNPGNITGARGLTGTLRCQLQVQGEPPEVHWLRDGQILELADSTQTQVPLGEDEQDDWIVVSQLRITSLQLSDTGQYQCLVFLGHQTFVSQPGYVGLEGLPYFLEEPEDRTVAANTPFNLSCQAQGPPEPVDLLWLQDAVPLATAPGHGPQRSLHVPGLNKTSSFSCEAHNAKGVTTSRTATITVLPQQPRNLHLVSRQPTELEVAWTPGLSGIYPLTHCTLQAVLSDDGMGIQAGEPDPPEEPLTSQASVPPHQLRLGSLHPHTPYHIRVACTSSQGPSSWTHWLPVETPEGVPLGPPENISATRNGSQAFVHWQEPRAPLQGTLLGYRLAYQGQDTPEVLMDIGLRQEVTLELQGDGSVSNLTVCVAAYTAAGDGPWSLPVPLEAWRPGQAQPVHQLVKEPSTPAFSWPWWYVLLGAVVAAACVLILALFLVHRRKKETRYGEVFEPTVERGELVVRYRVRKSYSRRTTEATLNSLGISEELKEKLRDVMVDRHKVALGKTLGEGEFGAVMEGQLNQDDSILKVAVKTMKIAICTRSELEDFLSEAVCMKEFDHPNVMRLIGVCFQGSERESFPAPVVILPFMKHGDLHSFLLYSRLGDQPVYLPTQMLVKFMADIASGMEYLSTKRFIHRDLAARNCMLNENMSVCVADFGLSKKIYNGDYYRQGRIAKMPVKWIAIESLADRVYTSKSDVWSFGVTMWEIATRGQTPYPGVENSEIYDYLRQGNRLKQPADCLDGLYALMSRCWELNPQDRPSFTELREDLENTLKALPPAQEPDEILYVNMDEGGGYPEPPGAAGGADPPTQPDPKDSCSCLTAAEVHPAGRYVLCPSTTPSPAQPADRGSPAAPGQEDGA
In short: (§1)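 IC50 reflects the drop in TR-FRET between Eu anti-phosphotyrosine antibody and labelled peptide after a 60-minute room-temperature reaction. Buffer was 50 mM HEPES pH 7.5 with 10 mM MgCl2, 1 mM EGTA, 0.01% Brij 35 and 1 mM DTT, with ATP at Km per enzyme and EDTA quench.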

MERTK = target: T2, MERTK (Homo sapiens, UniProt Q12866); assay: TR-FRET kinase activity assay, MERTK; type: biochemical; conditions: for IC50: TR-FRET activity assay, ATP at Km, 60 minutes, read-out: Mer IC50; for FLT3/Mer ratio (FLT3 IC50/Mer IC50): ratio of Mer to FLT3: FLT3 IC50/Mer IC50
T2 sequence (Q12866 21-999): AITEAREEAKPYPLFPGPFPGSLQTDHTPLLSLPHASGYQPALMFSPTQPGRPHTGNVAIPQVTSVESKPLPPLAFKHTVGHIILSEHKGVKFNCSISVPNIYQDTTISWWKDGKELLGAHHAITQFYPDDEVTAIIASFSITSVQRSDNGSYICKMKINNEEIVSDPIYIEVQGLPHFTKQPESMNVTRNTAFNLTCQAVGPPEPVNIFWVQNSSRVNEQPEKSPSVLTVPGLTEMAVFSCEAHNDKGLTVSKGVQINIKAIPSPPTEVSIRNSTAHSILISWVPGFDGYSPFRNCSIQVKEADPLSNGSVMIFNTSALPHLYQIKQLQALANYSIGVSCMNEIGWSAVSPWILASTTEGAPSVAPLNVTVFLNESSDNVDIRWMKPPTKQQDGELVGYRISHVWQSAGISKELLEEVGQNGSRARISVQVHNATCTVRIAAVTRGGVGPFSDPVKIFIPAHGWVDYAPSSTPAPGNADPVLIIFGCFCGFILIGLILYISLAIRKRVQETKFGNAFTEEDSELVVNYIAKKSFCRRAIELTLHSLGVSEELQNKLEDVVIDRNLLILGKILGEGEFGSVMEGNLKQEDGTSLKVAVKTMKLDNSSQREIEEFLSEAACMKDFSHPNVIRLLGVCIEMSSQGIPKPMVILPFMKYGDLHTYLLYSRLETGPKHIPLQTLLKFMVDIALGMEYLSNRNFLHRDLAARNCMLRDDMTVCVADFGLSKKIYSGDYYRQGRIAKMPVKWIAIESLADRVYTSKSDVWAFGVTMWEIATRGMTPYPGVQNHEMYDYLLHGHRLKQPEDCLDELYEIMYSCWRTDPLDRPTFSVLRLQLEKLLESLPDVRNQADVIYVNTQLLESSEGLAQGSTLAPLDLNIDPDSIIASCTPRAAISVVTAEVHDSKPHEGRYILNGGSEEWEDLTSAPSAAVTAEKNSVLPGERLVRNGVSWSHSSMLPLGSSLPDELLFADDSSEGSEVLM
In short: as §1

Compound | IC50 (AXL) | IC50 (MERTK) | FLT3/Mer ratio (FLT3 IC50/Mer IC50) (MERTK)
COC[C@H](C)Nc1ncc2c(-c3cnnc(C)c3)cc([C@H]3CC[C@H](O)CC3)n2n1 [Compound 267] | 100 to 1000 nM | ≤ 100 nM | +++ (“+++” represents a ratio of >100)
Cc1cc(-c2cc([C@H]3CC[C@H](O)CC3)n3nc(N[C@@H](C)CC(F)(F)F)ncc23)cnn1 [Compound 268] | 100 to 1000 nM | ≤ 100 nM | +++ (“+++” represents a ratio of >100)
C[C@@H](CC(F)(F)F)Nc1ncc2c(-c3cnn(C4COC4)c3)cc([C@H]3CC[C@H](O)CC3)n2n1 [Compound 269] | ≤ 100 nM | ≤ 100 nM | ++ (“++” represents a ratio of between 10 and 100)
COC[C@H](C)Nc1ncc2c(-c3ccc(N4CCN(C)CC4)nc3)cc([C@H]3CC[C@H](O)CC3)n2n1 [Compound 271] | ≤ 100 nM | ≤ 100 nM | ++ (“++” represents a ratio of between 10 and 100)

More lines, now with the values ahead:

IC50 (AXL) | IC50 (MERTK) | FLT3/Mer ratio (FLT3 IC50/Mer IC50) (MERTK) | Compound
≤ 100 nM | ≤ 100 nM | +++ (“+++” represents a ratio of >100) | COC[C@H](C)Nc1ncc2c(-c3cnn(CC4(C#N)CC4)c3)cc([C@H]3CC[C@H](O)CC3)n2n1 [Compound 266]
≤ 100 nM | ≤ 100 nM | +++ (“+++” represents a ratio of >100) | C[C@@H](COC(F)F)Nc1ncc2c(-c3cnn(C4COC4)c3)cc([C@H]3CC[C@H](O)CC3)n2n1 [Compound 270]

— US11040981B2, “Pyrrolotriazine compounds and methods of inhibiting TAM kinases” (Syros Pharmaceuticals, Inc., priority 2017, dated 2021)
